“Also recorded” adds a separate entry of the source.
What was measured:
[1] = test system: experimental autoimmune encephalomyelitis (EAE) model; assay: EAE clinical score in PLP-induced EAE mice; type: in vivo, SJL/J female mice; settings: for clinical score severity and clinical features (therapeutic effect in EAE mice model): regimen not specified
Protocol: The basic experimental approaches to test the efficacy of the compounds in the EAE model were done using the methodologies developed in our laboratory. EAE disease was induced in 4-6 weeks SJL female mice using 200 μg PLP peptide emulsified in complete Freund's adjuvant (CFA) containing 1 mg heat-killed Mycobacterium tuberculosis, injected at four sites in the right and left flanks. Following each injection, 200 ng of Bordetella pertussis toxin PTX) was injected intraperitoneal (IP) on days 0 and 2 post PLP immunization. The mice were divided into several groups: 1. prevention, where they were treated with 50 μg/mouse of SIMR1281 or SIMR1707 starting 15 days before the induction of EAE and continued […]. 2. Prophylactic, mice were treated with 50 μg/moues of SIMR1281 or SIMR1707 starting from day of EAE induction and continued every three days until termination (usually between 40-45 days). 3. Therapeutic, where mice were treated with 50 μg of SIMR1281 or SIMR1707 from the days of disease development (usually between 8-10 post EAE induction), and continued every three days until termination. The procedure for these regimens is shown below: • A. Prophylactic regimen: Mice were injected IP with 50 μg/mouse every 3 days since the initiation of the disease and until termination.
[drawing 3] • B. Therapeutic regimen: Mice were injected IP with 50 μg/mouse every 3 days at the appearance of symptoms (usually […]) days after initiation of the disease and until termination.
[drawing 4] • C. Prevention: The mice were injected IP with 50 μg/mouse of SIMR 1707 or 1281 at days −15, −10, −5, and 0. EAE was induced at day 0.
(§1) Untreated mice or mice injected with DMSO as a vehicle were used. For positive group, the results regarding the effects of RTX were used. During the course of the EAE disease, the animals were independently observed and monitored daily, and the EAE clinical score was recorded according to the following scoring scheme: 0=no clinical disease, 1=tail flaccidity, 2=hind limb weakness, 3=hind limb paralysis, 4=forelimb paralysis, and 5=moribund or death. The body weight changes were also monitored for all the mice groups. After the termination of the experiment, the mice were sacrificed, and their brains were collected for histological and immunohistochemistry analysis.

[2] = test system: CD3^+ T lymphocyte infiltration into the cerebellum; assay: Anti-CD3 staining of cerebellum; type: in vivo, SJL/J female mice; settings: 50 μg/mouse IP (FIG. 7)
Protocol: as §1
FIG. 6 illustrates H&E staining of mice cerebellum (rectangles) showing highly inflamed lesions in EAE untreated and vehicle treated mice (arrows). […] Further, infiltration of CD3 cells into the mice cerebellum stained with anti-CD3 was performed.

[3] = Body weight of EAE mice during treatment; type: in vivo; settings: prophylactic, therapeutic or prevention regimen, measured every day up to 45 days (FIG. 5)
Protocol: as §1
(§2) FIG. 5 illustrates the weights of mice measured every day through the course of the experiments, i.e. up to 45 days after the initiation of the disease. FIGS. 5A, 5B and 5C, show the weights of mice after prophylactic, therapeutic or prevention regimen, respectively. Significant values shown in the right panels compared the mice body weights among the various groups. To corroborate the results of clinical scores with histological evaluation, we performed immunohistochemistry analysis to evaluate the effects of the two drugs on the inflammation taking place in the brain. First, we stained the brain cerebellum of these mice with H&E to evaluate the degree of inflammation.

[4] = test system: demyelination in the cerebellum; assay: Luxol fast blue staining of cerebellum (demyelination / re-myelination); type: in vivo, SJL/J female mice; settings: 50 μg/mouse IP (FIG. 9)
Protocol: as §1
FIG. 8 illustrates mouse brain cerebellum (rectangles or squares) was stained with GFAP to determine the degree of glial cell activation. […] Finally, we stained the mice brain cerebellum with Luxol fast blue to determine the degree of re-myelination after treatment with the two drugs.

[5] = test system: perivascular inflammatory infiltrates in cerebellum; assay: H&E staining of brain cerebellum (degree of inflammation); type: in vivo, SJL/J female mice; settings: 50 μg/mouse IP (FIG. 6)
Protocol: as §1, §2

[6] = test system: GFAP; assay: GFAP staining of cerebellum (glial cell activation, gliosis); type: in vivo, SJL/J female mice; settings: 50 μg/mouse IP (FIG. 8)
Protocol: as §1
FIG. 7 illustrates infiltration of CD3^+ lymphocytes into the cerebellum of mice brains (rectangles or squares). […] To further investigate the effects of the drugs on brain inflammation, we examined the activation of glial cells by staining with GFAP which determines the degree of gliosis.

[7] = prevention regimen, 50 μg/mouse IP on days −15, −10, −5 and 0, EAE induced at day 0, vs vehicle or untreated (FIG. 3C)
[8] = prophylactic regimen, 50 μg/mouse IP every 3 days from EAE induction until termination, vs vehicle or untreated (FIG. 3A)
[9] = therapeutic regimen, 50 μg/mouse IP every 3 days from appearance of symptoms until termination, vs vehicle or untreated (FIG. 3B)

Row | Compound | EAE clinical scores ([1]; RTX as prophylactic drug, IP from day 0 every three days until termination (FIG. 4A)) | EAE clinical scores ([1]; RTX as therapeutic drug, 5 μg/mouse IP from first sign of disease every three days until termination (FIG. 4B)) | EAE clinical scores ([1]; RTX prevention regimen, IP on days −15, −10, −5 and 0, particularly at high concentration, 20 μg/mouse (FIG. 4C)) | clinical score severity and clinical features (therapeutic effect in EAE mice model) [1] | EAE clinical scores [1, 7] | EAE clinical scores [1, 8] | EAE clinical scores [1, 9] | CD3^+ T lymphocyte infiltration ([2]; prevention regimen) | CD3^+ T lymphocyte infiltration ([2]; prophylactic regimen) | CD3^+ T lymphocyte infiltration ([2]; therapeutic regimen) | body weight [3] | demyelination / re-myelination (Luxol fast blue) ([4]; prevention regimen) | demyelination / re-myelination (Luxol fast blue) ([4]; prophylactic regimen) | demyelination / re-myelination (Luxol fast blue) ([4]; therapeutic regimen) | inflammation, perivascular inflammatory infiltrates (H&E) ([5]; prevention regimen) | inflammation, perivascular inflammatory infiltrates (H&E) ([5]; prophylactic regimen) | inflammation, perivascular inflammatory infiltrates (H&E) ([5]; therapeutic regimen) | GFAP expression / gliosis ([6]; prevention regimen) | GFAP expression / gliosis ([6]; prophylactic regimen) | GFAP expression / gliosis ([6]; therapeutic regimen)
1 | Rituximab [RTX, reference compound] | did not exert significant differences | did not exert significant differences | only worked in the prevention regimen | – | – | – | – | – | – | – | – | – | – | – | – | – | – | – | – | –
2 | CC1(C)[C@H]2COc3ccc4ccccc4c3[C@H]2N=C2SC(c3ccccc3)=C(c3ccccc3)N21 [SIMR-1281, (8aS,14aS)-9,9-dimethyl-11,12-diphenyl-8a,14a-dihydro-8H,9H-benzo[5,6]chromeno[4,3-d]thiazolo[3,2-a]pyrimidine] | – | – | – | significant reduction | significant decrease | significant decrease | significant decrease | no evidence of CD3^+ T lymphocyte infiltration; also recorded: no CD3^+ T cell accumulation | no evidence of CD3^+ T lymphocyte infiltration; also recorded: no CD3^+ T cell accumulation | no evidence of CD3^+ T lymphocyte infiltration; also recorded: no CD3^+ T cell accumulation | significantly increased the weights | no evidence of demyelination | no evidence of demyelination | no evidence of demyelination | no evidence of any perivascular inflammatory infiltrates; also recorded: no inflammation | no evidence of any perivascular inflammatory infiltrates; also recorded: no inflammation | no evidence of any perivascular inflammatory infiltrates; also recorded: no inflammation | significant reduction; also recorded: so robust in preventing gliosis | significant reduction; also recorded: so robust in preventing gliosis | significant reduction; also recorded: so robust in preventing gliosis
3 | C[C@]12CCC(=O)C[C@H]1N1CCc3c([nH]c4ccccc34)[C@@H]1CO2 [SIMR-1707] | – | – | – | significant reduction | not when used in the prevention regimen | effective | effective | less infiltration of CD3^+ T cells | partially reduce; also recorded: less infiltration of CD3^+ T cells | no evidence of any CD3^+ T lymphocyte infiltration; also recorded: completely disappeared | significantly increased the weights | partial improvement in re-myelination; also recorded: partial improvement in demyelination | partial improvement in re-myelination; also recorded: partial improvement in demyelination | significant reduction in the demyelination areas | minimal evidence of perivascular inflammatory infiltrates; also recorded: less inflammation | minimal evidence of perivascular inflammatory infiltrates; also recorded: less inflammation | no evidence of perivascular inflammatory infiltrates; also recorded: completely disappeared | only partial reduction; also recorded: Less gliosis | significant reduction; also recorded: no obvious glial cells activation | significant reduction; also recorded: no obvious glial cells activation
